pIC50: −log10 of the molar value.
Test system: LG0703-F948-PDC complex spheroid viability
Test: Anticancer human tumor LG0703-F948-PDC patient-derived lung adenocarcinoma cell line growth inhibition [RAS]
Conditions: for pIC50: curve of first compound; for viability, T/C: stronger effect = lower value
How it was run: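 Agents were tested in combination matrices in half-log decrements from a top concentration at or near clinical Cmax (10 microM if undetermined). Targets were multi-cell spheroids of tumour lines plus HUVEC and MSC stromal cells.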
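Also: spheroids exposed to agents for 7 days.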
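For viability, T/C in this document: 100% = DMSO vehicle wells.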

NC1c2ccccc2OC12CCN(c1cnc3c(N4CCCc5ncccc54)n[nH]c3n1)CC2 (centres undefined) + C=CC(=O)N1CCN(c2nc(OCC3CCCN3C)nc3c(F)c(-c4nc(N)cc(C)c4C(F)(F)F)c(Cl)cc23)C(C)C1 showed a pIC50 (second compound 0.00316 µM) of 7.41, a pIC50 (second compound 0.01 µM) of 7.32 and a pIC50 (second compound 0.0316 µM) of 7.37. For the same compound, the pIC50 (second compound 0.1 µM) was 7.29, the pIC50 (second compound 0.316 µM) was 7.23 and the pIC50 (second compound 1 µM) was 7.38. It also gave a viability, T/C (second compound 0.00316 µM, first compound 0.0316 µM) of 54.5%, a viability, T/C (second compound 0.00316 µM, first compound 0.1 µM) of 31.4% and a viability, T/C (second compound 0.00316 µM, first compound 0.316 µM) of 16%. The viability, T/C (second compound 0.00316 µM, first compound 1 µM) was 10.9%, the viability, T/C (second compound 0.00316 µM, first compound 3.16 µM) was 4.54% and the viability, T/C (second compound 0.00316 µM, first compound 10 µM) was 2.7%. For the same compound, the viability, T/C (second compound 0.01 µM, first compound 0.0316 µM) was 58.3%, the viability, T/C (second compound 0.01 µM, first compound 0.1 µM) was 35% and the viability, T/C (second compound 0.01 µM, first compound 0.316 µM) was 19.9%. It also gave a viability, T/C (second compound 0.01 µM, first compound 1 µM) of 8.08%, a viability, T/C (second compound 0.01 µM, first compound 3.16 µM) of 5.69% and a viability, T/C (second compound 0.01 µM, first compound 10 µM) of 1.86%. It also gave a viability, T/C (second compound 0.0316 µM, first compound 0.0316 µM) of 55.8%, a viability, T/C (second compound 0.0316 µM, first compound 0.1 µM) of 34.1% and a viability, T/C (second compound 0.0316 µM, first compound 0.316 µM) of 20.5%. The viability, T/C (second compound 0.0316 µM, first compound 1 µM) was 10.8%, the viability, T/C (second compound 0.0316 µM, first compound 3.16 µM) was 4.57% and the viability, T/C (second compound 0.0316 µM, first compound 10 µM) was 1.97%. For the same compound, the viability, T/C (second compound 0.1 µM, first compound 0.0316 µM) was 60.3%, the viability, T/C (second compound 0.1 µM, first compound 0.1 µM) was 35.2% and the viability, T/C (second compound 0.1 µM, first compound 0.316 µM) was 22.8%. It also gave a viability, T/C (second compound 0.1 µM, first compound 1 µM) of 7.04%, a viability, T/C (second compound 0.1 µM, first compound 3.16 µM) of 4.16% and a viability, T/C (second compound 0.1 µM, first compound 10 µM) of 1.66%. It also gave a viability, T/C (second compound 0.316 µM, first compound 0.0316 µM) of 69.5%, a viability, T/C (second compound 0.316 µM, first compound 0.1 µM) of 32.4% and a viability, T/C (second compound 0.316 µM, first compound 0.316 µM) of 17.3%. For the same compound, the viability, T/C (second compound 0.316 µM, first compound 1 µM) was 8.03%, the viability, T/C (second compound 0.316 µM, first compound 3.16 µM) was 4.54% and the viability, T/C (second compound 0.316 µM, first compound 10 µM) was 1.99%. The viability, T/C (second compound 1 µM, first compound 0.0316 µM) was 56.2%, the viability, T/C (second compound 1 µM, first compound 0.1 µM) was 30.1% and the viability, T/C (second compound 1 µM, first compound 0.316 µM) was 19.4%. For the same compound, the viability, T/C (second compound 1 µM, first compound 1 µM) was 8.31%, the viability, T/C (second compound 1 µM, first compound 3.16 µM) was 6.93% and the viability, T/C (second compound 1 µM, first compound 10 µM) was 3.04%.

Compound C=CC(=O)N1CCN(c2nc(OCC3CCCN3C)nc3c(F)c(-c4nc(N)cc(C)c4C(F)(F)F)c(Cl)cc23)C(C)C1 (centres undefined) + CCn1c(-c2cccnc2C(C)OC)c2c3cc(ccc31)N1CCOC(CC(NC(=O)C(C(C)C)N(C)C(=O)C3(F)CCN(C(=O)C#CC(C)(C)N(C)C)CC3)C(=O)N3CCCC(N3)C(=O)OCC(C)(C)C2)C1 has a pIC50 (second compound 0.000949 µM) of under 6.00, a pIC50 (second compound 0.003 µM) of under 6.00 and a pIC50 (second compound 0.00949 µM) of under 6.00. The pIC50 (second compound 0.03 µM) was under 6.00, the pIC50 (second compound 0.0949 µM) was under 6.00 and the pIC50 (second compound 0.3 µM) was over 8.50. The viability, T/C (second compound 0.000949 µM, first compound 0.00316 µM) was 91.1%, the viability, T/C (second compound 0.000949 µM, first compound 0.01 µM) was 92.5% and the viability, T/C (second compound 0.000949 µM, first compound 0.0316 µM) was 90.4%. It also gave a viability, T/C (second compound 0.000949 µM, first compound 0.1 µM) of 88%, a viability, T/C (second compound 0.000949 µM, first compound 0.316 µM) of 89.5% and a viability, T/C (second compound 0.000949 µM, first compound 1 µM) of 116%. The viability, T/C (second compound 0.003 µM, first compound 0.00316 µM) was 95.5%, the viability, T/C (second compound 0.003 µM, first compound 0.01 µM) was 85.6% and the viability, T/C (second compound 0.003 µM, first compound 0.0316 µM) was 99.5%. For the same compound, the viability, T/C (second compound 0.003 µM, first compound 0.1 µM) was 87.7%, the viability, T/C (second compound 0.003 µM, first compound 0.316 µM) was 80.7% and the viability, T/C (second compound 0.003 µM, first compound 1 µM) was 89.6%. For the same compound, the viability, T/C (second compound 0.00949 µM, first compound 0.00316 µM) was 89.6%, the viability, T/C (second compound 0.00949 µM, first compound 0.01 µM) was 95.1% and the viability, T/C (second compound 0.00949 µM, first compound 0.0316 µM) was 88.4%. For the same compound, the viability, T/C (second compound 0.00949 µM, first compound 0.1 µM) was 99%, the viability, T/C (second compound 0.00949 µM, first compound 0.316 µM) was 101% and the viability, T/C (second compound 0.00949 µM, first compound 1 µM) was 87.3%. The viability, T/C (second compound 0.03 µM, first compound 0.00316 µM) was 91.1%, the viability, T/C (second compound 0.03 µM, first compound 0.01 µM) was 89.3% and the viability, T/C (second compound 0.03 µM, first compound 0.0316 µM) was 78.1%. It also gave a viability, T/C (second compound 0.03 µM, first compound 0.1 µM) of 92.6%, a viability, T/C (second compound 0.03 µM, first compound 0.316 µM) of 107% and a viability, T/C (second compound 0.03 µM, first compound 1 µM) of 81.6%. For the same compound, the viability, T/C (second compound 0.0949 µM, first compound 0.00316 µM) was 78.2%, the viability, T/C (second compound 0.0949 µM, first compound 0.01 µM) was 79.1% and the viability, T/C (second compound 0.0949 µM, first compound 0.0316 µM) was 76.7%. For the same compound, the viability, T/C (second compound 0.0949 µM, first compound 0.1 µM) was 85.3%, the viability, T/C (second compound 0.0949 µM, first compound 0.316 µM) was 77.3% and the viability, T/C (second compound 0.0949 µM, first compound 1 µM) was 77.4%. The viability, T/C (second compound 0.3 µM, first compound 0.00316 µM) was 51.9%, the viability, T/C (second compound 0.3 µM, first compound 0.01 µM) was 47.8% and the viability, T/C (second compound 0.3 µM, first compound 0.0316 µM) was 47.7%. It also gave a viability, T/C (second compound 0.3 µM, first compound 0.1 µM) of 44.4%, a viability, T/C (second compound 0.3 µM, first compound 0.316 µM) of 59.9% and a viability, T/C (second compound 0.3 µM, first compound 1 µM) of 50.5%.

From PubChem BioAssay AID2060890 (Molecular Pharmacology Branch, DTP, NCI, 2025)
